Experimental data published in US20020002171A1, “Materials and methods for killing nematodes and nematode eggs” (priority 2000, published 2002).

Each molecule was assayed on Caenorhabditis elegans (assay: C. elegans L1 nematicidal dose response in 96-well plates, 5 day visual score (Example 2; same procedure for Example 7, Table 3)). Settings: 0.3 μM, C. elegans L1, scored day 5.
Assay type: in vivo
Design: key to 5 Day Visual Score V1 / 5 Day Visual Score V2 / 5 Day Visual Score V3 / 5 Day Visual Score V4 / 5 Day Visual Score V6 / 5 Day Visual Score V5 / Initial HTS Run Visual Score / Follow-up HTS Run Visual Score: Dead: only stiff L1s (no movement); Dead (L4): worms are dead, but at a later larval stage; majority of worms are L1 (based on size) worms move when plate is tapped; majority of worms are L2 (based on size); majority of worms are L3 (based on size); majority of worms are L4 (based on size); AD: majority of worms are adult; #AD: 5 adult worms or less; B!: sterile (0-25 progeny); B: low broodsize (25-100 progeny); ˜B: moderate broodsize (100-250 progeny); <: reduced broodsize (250-500 progeny); OK: no effect (˜1000+ progeny)
How it was run: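 L1 larvae, 20 per well in NGM with 1% E. coli HB101 and antibiotic/antimycotic, exposed to six 3-fold dilutions from 70 μM down to 0.3 μM (1.4% DMSO at top). Held at 20° C; viability scored visually under 100× dissecting microscope on day 5.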

Structure (SMILES)	5 Day Visual Score V6
CCC(=O)C(C)C(Nc1cc(Br)c(C)c(Br)c1)c1ccc(C)o1 (stereo not drawn) [AKC 131]	< (reduced broodsize (250-500 progeny))

Same assay, conditions: 0.9 μM, C. elegans L1, scored day 5

Structure (SMILES)	5 Day Visual Score V5
Fc1ccc(N2CCN(c3nc(NCc4ccc(C(F)(F)F)cc4)ns3)CC2)cc1 [AKC 135]	˜B (moderate broodsize (100-250 progeny))
Cc1ccc(C(CC(=O)c2ccc(C)c(C)c2)Nc2cc(Br)c(C)c(Br)c2)o1 (stereo not drawn) [AKC 130]	OK (no effect (˜1000+ progeny))
CCC(=O)C(C)C(Nc1cc(Br)c(C)c(Br)c1)c1ccc(C)o1 (stereo not drawn) [AKC 131]	#AD/˜B
CCCCCCCCS(=O)(=O)N1CCN(C(=O)C=Cc2cccc(C(F)(F)F)c2)CC1C(=O)NCc1ccc(C(F)(F)F)cc1 (stereo not drawn) [AKC 171]	< (reduced broodsize (250-500 progeny))

Same assay, conditions: 2.6 μM, C. elegans L1, scored day 5

Structure (SMILES)	5 Day Visual Score V4
Cc1ccc(C(CC(=O)c2ccc(C)c(C)c2)Nc2cc(Br)c(C)c(Br)c2)o1 (stereo not drawn) [AKC 130]	#AD/˜B
CCC(=O)C(C)C(Nc1cc(Br)c(C)c(Br)c1)c1ccc(C)o1 (stereo not drawn) [AKC 131]	#AD/˜B

Same assay, conditions: 7.8 μM, C. elegans L1, scored day 5

Structure (SMILES)	5 Day Visual Score V3
CCC(=O)C(C)C(Nc1cc(Br)c(C)c(Br)c1)c1ccc(C)o1 (stereo not drawn) [AKC 131]	#AD/˜B
CCCCCCCCS(=O)(=O)N1CCN(C(=O)C=Cc2cccc(C(F)(F)F)c2)CC1C(=O)NCc1ccc(C(F)(F)F)cc1 (stereo not drawn) [AKC 171]	Dead(L4)/#A

Same assay, conditions: 23.3 μM, C. elegans L1, scored day 5

Structure (SMILES)	5 Day Visual Score V2
Fc1ccc(N2CCN(c3nc(NCc4ccc(C(F)(F)F)cc4)ns3)CC2)cc1 [AKC 135]	L1
Cc1ccc(C(CC(=O)c2ccc(C)c(C)c2)Nc2cc(Br)c(C)c(Br)c2)o1 (stereo not drawn) [AKC 130]	#AD/-B
CCC(=O)C(C)C(Nc1cc(Br)c(C)c(Br)c1)c1ccc(C)o1 (stereo not drawn) [AKC 131]	L1
CCCCCCCCS(=O)(=O)N1CCN(C(=O)C=Cc2cccc(C(F)(F)F)c2)CC1C(=O)NCc1ccc(C(F)(F)F)cc1 (stereo not drawn) [AKC 171]	L2

Same assay, conditions: 70 μM, C. elegans L1, scored day 5

Structure (SMILES)	5 Day Visual Score V1
Fc1ccc(N2CCN(c3nc(NCc4ccc(C(F)(F)F)cc4)ns3)CC2)cc1 [AKC 135]	Dead
Cc1ccc(C(CC(=O)c2ccc(C)c(C)c2)Nc2cc(Br)c(C)c(Br)c2)o1 (stereo not drawn) [AKC 130]	Dead
CCC(=O)C(C)C(Nc1cc(Br)c(C)c(Br)c1)c1ccc(C)o1 (stereo not drawn) [AKC 131]	Dead
CCCCCCCCS(=O)(=O)N1CCN(C(=O)C=Cc2cccc(C(F)(F)F)c2)CC1C(=O)NCc1ccc(C(F)(F)F)cc1 (stereo not drawn) [AKC 171]	Dead

Same assay, conditions: Follow-up HTS run

Structure (SMILES)	Follow-up HTS Run % Run	Follow-up HTS Run Visual Score	Follow-up HTS Run mOD
CN(CCO)c1nc(NCc2ccc(C(F)(F)F)cc2)ns1 [compound 256]	112%	L2 - Dead L3	180 mOD
CCCCN(CC)c1nc(NC2CCCCCCCCCCC2)ns1 [compound 332]	75%	Dead	121 mOD
CCCCN(Cc1ccccc1)c1nc(NC2CCCCCCCCCCC2)ns1 [compound 333]	76%	Dead	123 mOD
C=CCN(CC=C)c1nc(NCC(c2ccccc2)c2ccccc2)ns1 [compound 272]	110%	–	177 mOD
OCC1CCCN(c2nc(NCc3ccccc3)ns2)C1 (stereo not drawn) [compound 263]	104%	–	167 mOD

Same assay, conditions: Initial HTS run

Structure (SMILES)	Initial HTS Run % Run	Initial HTS Run Visual Score	Initial HTS Run mOD
CN(CCO)c1nc(NCc2ccc(C(F)(F)F)cc2)ns1 [compound 256]	106%	L2 - (Dead L3)	117 mOD
CCCCN(CC)c1nc(NC2CCCCCCCCCCC2)ns1 [compound 332]	92%	Dead	101 mOD
CCCCN(Cc1ccccc1)c1nc(NC2CCCCCCCCCCC2)ns1 [compound 333]	93%	Dead	102 mOD
C=CCN(CC=C)c1nc(NCC(c2ccccc2)c2ccccc2)ns1 [compound 272]	108%	L3	119 mOD
OCC1CCCN(c2nc(NCc3ccccc3)ns2)C1 (stereo not drawn) [compound 263]	110%	–	121 mOD

Same assay, conditions: dose response, dilution V1, 5 day

Structure (SMILES)	5 Day Visual Score V1
CCCCN(CC)c1nc(NC2CCCCCCCCCCC2)ns1 [compound 332]	Dead
CCCCN(Cc1ccccc1)c1nc(NC2CCCCCCCCCCC2)ns1 [compound 333]	Dead

Same assay, conditions: dose response, dilution V1, day 5

Structure (SMILES)	5 Day Visual Score V1
CN(CCO)c1nc(NCc2ccc(C(F)(F)F)cc2)ns1 [compound 256]	Dead
C=CCN(CC=C)c1nc(NCC(c2ccccc2)c2ccccc2)ns1 [compound 272]	Dead

Same assay, conditions: dose response, dilution V2, 5 day

Structure (SMILES)	5 Day Visual Score V2
CCCCN(CC)c1nc(NC2CCCCCCCCCCC2)ns1 [compound 332]	Dead
CCCCN(Cc1ccccc1)c1nc(NC2CCCCCCCCCCC2)ns1 [compound 333]	Dead

Same assay, conditions: dose response, dilution V2, day 5

Structure (SMILES)	5 Day Visual Score V2
C=CCN(CC=C)c1nc(NCC(c2ccccc2)c2ccccc2)ns1 [compound 272]	B (low broodsize (25-100 progeny))
OCC1CCCN(c2nc(NCc3ccccc3)ns2)C1 (stereo not drawn) [compound 263]	˜B (moderate broodsize (100-250 progeny))

Same assay, conditions: dose response, dilution V3, 5 day

Structure (SMILES)	5 Day Visual Score V3
CCCCN(CC)c1nc(NC2CCCCCCCCCCC2)ns1 [compound 332]	L1
CCCCN(Cc1ccccc1)c1nc(NC2CCCCCCCCCCC2)ns1 [compound 333]	Dead

Same assay, conditions: dose response, dilution V3, day 5

Structure (SMILES)	5 Day Visual Score V3
CN(CCO)c1nc(NCc2ccc(C(F)(F)F)cc2)ns1 [compound 256]	OK (no effect (˜1000+ progeny))
C=CCN(CC=C)c1nc(NCC(c2ccccc2)c2ccccc2)ns1 [compound 272]	OK (no effect (˜1000+ progeny))
OCC1CCCN(c2nc(NCc3ccccc3)ns2)C1 (stereo not drawn) [compound 263]	OK (no effect (˜1000+ progeny))

Same assay, conditions: dose response, dilution V4, 5 day

Structure (SMILES)	5 Day Visual Score V4
CCCCN(CC)c1nc(NC2CCCCCCCCCCC2)ns1 [compound 332]	OK (no effect (˜1000+ progeny))
CCCCN(Cc1ccccc1)c1nc(NC2CCCCCCCCCCC2)ns1 [compound 333]	OK (no effect (˜1000+ progeny))

Same assay, conditions: dose response, dilution V4, day 5

Structure (SMILES)	5 Day Visual Score V4
CN(CCO)c1nc(NCc2ccc(C(F)(F)F)cc2)ns1 [compound 256]	OK (no effect (˜1000+ progeny))
C=CCN(CC=C)c1nc(NCC(c2ccccc2)c2ccccc2)ns1 [compound 272]	OK (no effect (˜1000+ progeny))
OCC1CCCN(c2nc(NCc3ccccc3)ns2)C1 (stereo not drawn) [compound 263]	OK (no effect (˜1000+ progeny))

Same assay, conditions: dose response, dilution V5, 5 day

Structure (SMILES)	5 Day Visual Score V5
CCCCN(CC)c1nc(NC2CCCCCCCCCCC2)ns1 [compound 332]	OK (no effect (˜1000+ progeny))
CCCCN(Cc1ccccc1)c1nc(NC2CCCCCCCCCCC2)ns1 [compound 333]	OK (no effect (˜1000+ progeny))

Same assay, conditions: dose response, dilution V5, day 5

Structure (SMILES)	5 Day Visual Score V5
CN(CCO)c1nc(NCc2ccc(C(F)(F)F)cc2)ns1 [compound 256]	OK (no effect (˜1000+ progeny))
C=CCN(CC=C)c1nc(NCC(c2ccccc2)c2ccccc2)ns1 [compound 272]	OK (no effect (˜1000+ progeny))
OCC1CCCN(c2nc(NCc3ccccc3)ns2)C1 (stereo not drawn) [compound 263]	OK (no effect (˜1000+ progeny))

Same assay, conditions: dose response, dilution V6, 5 day

Structure (SMILES)	5 Day Visual Score V6
CCCCN(CC)c1nc(NC2CCCCCCCCCCC2)ns1 [compound 332]	OK (no effect (˜1000+ progeny))
CCCCN(Cc1ccccc1)c1nc(NC2CCCCCCCCCCC2)ns1 [compound 333]	OK (no effect (˜1000+ progeny))

Same assay, conditions: dose response, dilution V6, day 5

Structure (SMILES)	5 Day Visual Score V6
CN(CCO)c1nc(NCc2ccc(C(F)(F)F)cc2)ns1 [compound 256]	OK (no effect (˜1000+ progeny))
C=CCN(CC=C)c1nc(NCC(c2ccccc2)c2ccccc2)ns1 [compound 272]	OK (no effect (˜1000+ progeny))
OCC1CCCN(c2nc(NCc3ccccc3)ns2)C1 (stereo not drawn) [compound 263]	OK (no effect (˜1000+ progeny))
